Test systems include CCRF-CEM; DU-145; HCC 2998; HOP-62; HOP-92; HT-29; Hs-578T; KM12; MDA-MB-231; NCI-H23; NCI/ADR-RES; RXF 393; SF-539; SK-MEL-2; SK-MEL-5; SK-OV-3; SW-620; TK-10; UO-31; NCI-H522.
Common to all, as to test: growth of human tumour cells (NCI), 48 h

This note sets out measurements from ChEMBL document CHEMBL1201862, “PubChem BioAssay data set” (2004).

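All cell lines were grown in 96-well plates and treated with compound for 48 hours. The concentration for 50% growth inhibition is given as GI50.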 Active and inactive are the calls of the source. Cut-off read from the data, not from the text of the source: active = GI50 up to about 1.1 µM and inactive = higher.

On to `CC(O)/C=C/C1OC(=O)CC1Nc1ccc(C=O)cc1` (stereo not given), for which the GI50 is 15.8 µM (inactive) with CCRF-CEM; > 100 µM (inactive) with DU-145; > 100 µM (inactive) with HCC 2998; 20.9 µM (inactive) in the assay on HOP-62; 15.3 µM (inactive) in the assay with HOP-92; 41.7 µM (inactive) with HT-29. Moreover, the GI50 with Hs-578T is > 100 µM (inactive); in the assay on KM12 it was > 100 µM (inactive); with MDA-MB-231, > 100 µM (inactive); with NCI-H23, 59 µM (inactive); with NCI/ADR-RES, > 100 µM (inactive); in the assay with RXF 393, > 100 µM (inactive). For the same molecule, the GI50 is 87.1 µM (inactive) in the assay on SF-539; 23.3 µM (inactive) in the assay with SK-MEL-2; 16.6 µM (inactive) in the assay on SK-MEL-5; > 100 µM (inactive) with SK-OV-3; > 100 µM (inactive) in the assay on SW-620; > 100 µM (inactive) in the assay on TK-10. Moreover, the GI50 in the assay on UO-31 is 51.2 µM (inactive).

In the case of `Cc1ccc2c(c1)-c1c(C#N)c(N)nc(-c3ccc(Cl)cc3)c1CCS2(=O)=O`, the GI50 with CCRF-CEM was 1.12 µM (active); with DU-145, 17.2 µM (inactive); in the assay with HCC 2998, 6.7 µM (inactive); with HOP-62, 6.12 µM (inactive); with HOP-92, 44.5 µM (inactive); with HT-29 it was 3.61 µM (inactive). For the same molecule, the GI50 is 6.15 µM (inactive) with Hs-578T; 3.48 µM (inactive) with KM12; 12.3 µM (inactive) in the assay on MDA-MB-231; 7.23 µM (inactive) with NCI-H23; 2.14 µM (inactive) in the assay on NCI-H522; 4.48 µM (inactive) in the assay with NCI/ADR-RES. Further, the GI50 with SF-539 is 3.77 µM (inactive); in the assay on SK-MEL-2 it was 8.67 µM (inactive); with SK-MEL-5 it was 4.32 µM (inactive); with SK-OV-3, 8.38 µM (inactive); in the assay on SW-620, 5.81 µM (inactive); in the assay with TK-10 it was 43.6 µM (inactive). The GI50 in the assay with UO-31 is 5.74 µM (inactive).

Turning to `Nc1ncnc2c1ncn2CC(OCP(=O)(O)O)Oc1ccccc1` (stereo not given), the GI50 in the assay with CCRF-CEM, with DU-145, with HCC 2998, with HOP-62, in the assay with HOP-92 and with Hs-578T was > 100 µM (inactive) throughout. In addition, the GI50 in the assay on KM12, with MDA-MB-231, in the assay on NCI/ADR-RES, in the assay on RXF 393, with SF-539 and in the assay on SK-MEL-2 was > 100 µM (inactive) each time. In addition, the GI50 in the assay on SK-MEL-5, in the assay with SK-OV-3, in the assay on SW-620, with TK-10 and with UO-31 was > 100 µM (inactive) throughout.

`CSc1ccc(/C=C2\N=C(c3ccccc3)N(c3nc4cc(Cl)c(F)cc4s3)C2=O)cc1`: the GI50 is 25 µM (inactive) with CCRF-CEM; 50 µM (inactive) in the assay with DU-145; 99.5 µM (inactive) in the assay on HCC 2998; 25.2 µM (inactive) in the assay on HOP-62; 42 µM (inactive) in the assay with HOP-92; 49.4 µM (inactive) with HT-29. Besides, the GI50 was 21.7 µM (inactive) in the assay with Hs-578T; 31.4 µM (inactive) with KM12; 30.8 µM (inactive) with MDA-MB-231; 32.2 µM (inactive) with NCI/ADR-RES; 19.1 µM (inactive) with RXF 393; 26.3 µM (inactive) in the assay on SF-539. The GI50 was 18.2 µM (inactive) with SK-MEL-2; 28.4 µM (inactive) in the assay on SK-MEL-5; 64.3 µM (inactive) with SK-OV-3; 71.8 µM (inactive) in the assay on SW-620; > 100 µM (inactive) in the assay with TK-10; 55.8 µM (inactive) with UO-31.

`NC[C@H]1Nc2ccccc2[C@@H](O)C1O` (stereo not given in full): the GI50 in the assay with CCRF-CEM, with DU-145, in the assay with HCC 2998, with HOP-62, with HOP-92 and with HT-29 was > 100 µM (inactive) each time. Moreover, the GI50 with Hs-578T, in the assay with KM12, with MDA-MB-231, with NCI-H23, with NCI/ADR-RES and in the assay with RXF 393 was > 100 µM (inactive) in each case. Further, the GI50 with SF-539, with SK-MEL-2, in the assay with SK-MEL-5, in the assay with SK-OV-3, in the assay on SW-620 and in the assay on TK-10 was > 100 µM (inactive) in each case. Besides, in the assay with UO-31, the GI50 was > 100 µM (inactive).

With `C=C1[C@H](OC(=O)C(C)C)[C@@H](OC(C)=O)[C@@H](OC(C)=O)C(C)(C)[C@@H]2O[C@H]2[C@@H](C)C(=O)[C@@]2(OC(C)=O)C[C@@](C)(OC(C)=O)[C@H](OC(C)=O)[C@@H]2[C@H]1OC(C)=O`, the GI50 with CCRF-CEM, in the assay with DU-145, with HCC 2998, in the assay with HOP-62, in the assay on HOP-92 and with HT-29 was > 100 µM (inactive) in each case. In addition, the GI50 in the assay on Hs-578T, in the assay with KM12, with MDA-MB-231, with NCI-H23, with NCI-H522 and with NCI/ADR-RES was > 100 µM (inactive) throughout. In addition, the GI50 in the assay on SF-539, in the assay with SK-MEL-2, in the assay with SK-MEL-5, in the assay with SK-OV-3, in the assay with SW-620 and with TK-10 was > 100 µM (inactive) throughout. For the same molecule, the GI50 with UO-31 is 61.9 µM (inactive).

Take `CCc1nc2ccc(C(F)(F)F)cc2[nH]c1=O`: the GI50 with CCRF-CEM, with DU-145, in the assay on HCC 2998, in the assay with HOP-62, with HOP-92 and with HT-29 was > 100 µM (inactive) in each case. The GI50 is > 100 µM (inactive) in the assay on Hs-578T; > 100 µM (inactive) in the assay on KM12; 50.6 µM (inactive) in the assay with MDA-MB-231; > 100 µM (inactive) in the assay with NCI-H23; > 100 µM (inactive) in the assay with NCI/ADR-RES; > 100 µM (inactive) with RXF 393. For the same molecule, the GI50 in the assay with SF-539, in the assay with SK-MEL-2, with SK-MEL-5, with SK-OV-3, with SW-620 and in the assay with TK-10 was > 100 µM (inactive) in each case. Besides, the GI50 in the assay on UO-31 is 61.7 µM (inactive).

For `COc1cccc(CCCNC(=O)Cc2ccccc2CO)c1`, the GI50 with CCRF-CEM, in the assay on DU-145, in the assay with HCC 2998, in the assay with HOP-62, in the assay with HOP-92 and in the assay on HT-29 was > 100 µM (inactive) in each case. For the same molecule, the GI50 in the assay on Hs-578T, with KM12, with MDA-MB-231, in the assay with NCI-H23, with NCI/ADR-RES and in the assay on SF-539 was > 100 µM (inactive) each time. The GI50 in the assay on SK-MEL-2, in the assay with SK-MEL-5, in the assay with SK-OV-3, with SW-620, with TK-10 and in the assay with UO-31 was > 100 µM (inactive) each time.

Consider `Cc1cccc(/C=N/NC(=S)Nc2ccc(Cl)cc2)n1`, for which the GI50 with CCRF-CEM is 0.695 µM (active); with DU-145, 3.31 µM (inactive); with HCC 2998, 7.8 µM (inactive); in the assay with HOP-62 it was 1.08 µM (active); with HOP-92, 3 µM (inactive); in the assay with HT-29, 1.03 µM (active). Also, the GI50 in the assay with Hs-578T was 2.18 µM (inactive); in the assay with KM12 it was 0.977 µM (active); in the assay with MDA-MB-231, 0.897 µM (active); with NCI-H23 it was 4.38 µM (inactive); in the assay on NCI-H522, 0.177 µM (active); with NCI/ADR-RES, 0.527 µM (active). For the same molecule, the GI50 in the assay on SF-539 was 2.52 µM (inactive); with SK-MEL-2, 1.35 µM (inactive); with SK-MEL-5 it was 0.993 µM (active); with SK-OV-3, 1.8 µM (inactive); in the assay on SW-620, 0.46 µM (active); in the assay on TK-10, 11.6 µM (inactive). Moreover, the GI50 with UO-31 is 1.87 µM (inactive).

In the case of `Oc1c2cc(Br)cc1CCc1cc(Br)cc(c1O)CC2`, the GI50 was 18.2 µM (inactive) with CCRF-CEM; 16 µM (inactive) in the assay with DU-145; 15.3 µM (inactive) in the assay on HCC 2998; 28.6 µM (inactive) in the assay on HOP-62; 15.6 µM (inactive) in the assay with HT-29; 23.1 µM (inactive) with Hs-578T. Moreover, the GI50 in the assay on KM12 was 17.3 µM (inactive); with MDA-MB-231 it was 14 µM (inactive); with NCI-H23, 28.6 µM (inactive); in the assay on NCI-H522, 14.4 µM (inactive); with NCI/ADR-RES, 21.6 µM (inactive); in the assay on RXF 393 it was 20.2 µM (inactive). The GI50 in the assay on SF-539 is 28.4 µM (inactive); in the assay with SK-MEL-2, 20 µM (inactive); with SK-MEL-5, 13.6 µM (inactive); with SK-OV-3, 20.8 µM (inactive); in the assay with SW-620 it was 24.3 µM (inactive); in the assay with TK-10, 31.6 µM (inactive). Also, in the assay with UO-31, the GI50 was 12.8 µM (inactive).

Take `CN(C)N1C(=O)c2ccccc2NC1c1ccccc1` (stereo not given): the GI50 in the assay with CCRF-CEM, in the assay on DU-145, in the assay on HCC 2998, in the assay on HOP-62, with HOP-92 and in the assay with HT-29 was > 100 µM (inactive) in each case. Further, the GI50 in the assay with Hs-578T, in the assay with KM12, in the assay with MDA-MB-231, in the assay with NCI-H23, in the assay on NCI-H522 and with NCI/ADR-RES was > 100 µM (inactive) throughout. Further, the GI50 in the assay on SF-539, in the assay with SK-MEL-2, in the assay with SK-MEL-5, with SK-OV-3, in the assay on SW-620 and with TK-10 was > 100 µM (inactive) throughout. Besides, the GI50 in the assay with UO-31 was > 100 µM (inactive).
